In one data set the test system is MC-38. As to the kind of experiment: Antiproliferative activity against mouse MC38 cells measured after 72 hrs by CCK8 assay. It counts as functional. The following applies: Mus musculus, MC-38.
A short description of data set [1]: Tmax in ICR mouse at 20 mg/kg, po by LC-MS/MS analysis. It counts as ADME, organism-based. The following applies: in vivo.
A short description of data set [2]: Elimination rate constant in ICR mouse at 20 mg/kg, po up to 24 hrs by LC-MS/MS analysis. The following applies: in vivo. Format: ADME, organism-based.
The next data set deals with CT26. As to the kind of experiment: Antiproliferative activity against mouse CT26 cells measured after 72 hrs by CCK8 assay. It counts as functional. To be noted: Mus musculus, CT26.
Data set [3] is described as follows: Cmax in ICR mouse at 20 mg/kg, po by LC-MS/MS analysis. Format: ADME, organism-based. Further details: route oral, dose 20 mg/kg. To be noted: in vivo.
A short description of data set [4]: AUC (0 to infinity) in ICR mouse at 20 mg/kg, po by LC-MS/MS analysis. More on the design: time infinity, route oral, dose 20 mg/kg. It counts as ADME, organism-based. To be noted: in vivo.
In the next data set the target is Histone deacetylase 1 (Homo sapiens, UniProt Q13547). Description: Inhibition of HDAC1 (unknown origin) assessed as release of 7-amino-4-methylcoumarin incubated in room temperature for 15 min measured by Spectra max microtitre plate reader.
Data set [5] in a line: AUC (0 to t) in ICR mouse at 20 mg/kg, po by LC-MS/MS analysis. More on the design: dose 20 mg/kg. Format: ADME, organism-based. The following applies: in vivo.
A short description of data set [6]: MRT in ICR mouse at 20 mg/kg, po by LC-MS/MS analysis. It counts as ADME, organism-based. The following applies: in vivo.
The nature of data set [7]: Half life in ICR mouse at 20 mg/kg, po by LC-MS/MS analysis. It counts as ADME, organism-based. The following applies: in vivo.
A further data set has as its target Adenosine receptor A2a (Homo sapiens, UniProt P29274). As to the kind of experiment: Displacement of [3H]SCH58261 from adenosine A2A receptor membrane (unknown origin) measured after 60 mins by scintillation counting analysis. It counts as cell membranes.
Data set [8] addresses T1, Protein deacetylase HDAC6 (Homo sapiens, UniProt Q9UBN7).
T1 sequence (Q9UBN7 whole entry): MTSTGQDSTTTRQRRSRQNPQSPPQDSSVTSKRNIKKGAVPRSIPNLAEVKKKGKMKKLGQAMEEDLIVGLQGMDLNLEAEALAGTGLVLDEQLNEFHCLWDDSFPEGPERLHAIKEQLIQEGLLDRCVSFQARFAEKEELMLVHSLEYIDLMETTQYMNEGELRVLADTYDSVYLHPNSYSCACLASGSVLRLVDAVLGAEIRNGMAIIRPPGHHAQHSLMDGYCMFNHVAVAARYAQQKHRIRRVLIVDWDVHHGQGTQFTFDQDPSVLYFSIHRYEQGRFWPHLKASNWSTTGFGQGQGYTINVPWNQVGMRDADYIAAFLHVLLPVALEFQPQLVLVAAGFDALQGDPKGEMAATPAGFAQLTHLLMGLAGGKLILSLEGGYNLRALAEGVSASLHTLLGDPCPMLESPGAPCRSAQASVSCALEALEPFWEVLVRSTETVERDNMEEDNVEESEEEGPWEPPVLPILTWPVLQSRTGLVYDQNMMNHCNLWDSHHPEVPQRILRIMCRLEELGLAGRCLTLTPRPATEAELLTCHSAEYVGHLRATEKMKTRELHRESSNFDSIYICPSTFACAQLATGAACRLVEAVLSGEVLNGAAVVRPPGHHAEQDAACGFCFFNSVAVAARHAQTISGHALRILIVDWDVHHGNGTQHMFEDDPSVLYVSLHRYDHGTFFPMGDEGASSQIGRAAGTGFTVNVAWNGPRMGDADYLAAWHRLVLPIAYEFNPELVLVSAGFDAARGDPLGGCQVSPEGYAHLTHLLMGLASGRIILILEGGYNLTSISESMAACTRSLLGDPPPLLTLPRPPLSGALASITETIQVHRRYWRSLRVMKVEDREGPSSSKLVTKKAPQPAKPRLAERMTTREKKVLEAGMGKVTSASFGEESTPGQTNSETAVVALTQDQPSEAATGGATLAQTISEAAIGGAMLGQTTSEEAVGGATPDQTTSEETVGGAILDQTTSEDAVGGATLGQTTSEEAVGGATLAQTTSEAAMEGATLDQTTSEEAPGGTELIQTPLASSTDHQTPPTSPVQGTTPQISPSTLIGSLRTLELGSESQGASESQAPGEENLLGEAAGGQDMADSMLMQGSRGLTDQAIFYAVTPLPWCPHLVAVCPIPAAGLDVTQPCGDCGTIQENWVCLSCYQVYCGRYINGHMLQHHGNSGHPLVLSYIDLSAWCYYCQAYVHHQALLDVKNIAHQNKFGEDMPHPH
As to the kind of experiment: Inhibition of HDAC6 (unknown origin) assessed as release of 7-amino-4-methylcoumarin incubated in room temperature for 15 min measured by Spectra max microtitre plate reader.

The next data set addresses T2, Adenosine receptor A3 (Homo sapiens, UniProt P0DMS8).
T2 sequence (P0DMS8 whole entry): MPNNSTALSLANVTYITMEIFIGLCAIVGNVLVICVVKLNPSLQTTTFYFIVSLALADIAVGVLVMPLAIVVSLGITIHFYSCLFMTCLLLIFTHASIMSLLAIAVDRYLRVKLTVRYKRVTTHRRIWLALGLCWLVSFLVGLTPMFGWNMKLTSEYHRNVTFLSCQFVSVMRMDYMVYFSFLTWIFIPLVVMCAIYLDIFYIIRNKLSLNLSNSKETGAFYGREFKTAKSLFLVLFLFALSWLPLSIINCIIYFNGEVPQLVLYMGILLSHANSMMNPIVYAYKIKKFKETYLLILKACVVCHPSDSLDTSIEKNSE
As to the kind of experiment: Displacement of [3H]DPCPX from human adenosine A3 receptor membrane (unknown origin) measured after 60 mins by scintillation counting analysis. Format: cell membranes.

A value given as a limit tells only on which side of the number the result lay.

Histone deacetylase 1, sequence (Q13547 whole entry): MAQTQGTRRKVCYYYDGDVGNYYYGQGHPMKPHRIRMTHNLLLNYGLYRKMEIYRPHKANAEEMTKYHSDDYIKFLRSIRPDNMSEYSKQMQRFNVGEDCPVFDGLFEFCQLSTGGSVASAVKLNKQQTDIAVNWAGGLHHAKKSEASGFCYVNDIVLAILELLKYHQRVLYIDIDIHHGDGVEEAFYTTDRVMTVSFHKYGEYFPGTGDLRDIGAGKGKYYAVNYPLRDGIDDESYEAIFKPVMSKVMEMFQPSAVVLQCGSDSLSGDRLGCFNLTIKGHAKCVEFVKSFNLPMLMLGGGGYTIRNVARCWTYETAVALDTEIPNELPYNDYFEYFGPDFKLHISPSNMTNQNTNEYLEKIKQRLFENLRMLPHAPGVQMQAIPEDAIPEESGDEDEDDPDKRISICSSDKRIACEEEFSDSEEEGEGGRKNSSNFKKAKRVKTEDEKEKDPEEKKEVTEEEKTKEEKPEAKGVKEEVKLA
Adenosine receptor A2a, sequence (P29274 whole entry): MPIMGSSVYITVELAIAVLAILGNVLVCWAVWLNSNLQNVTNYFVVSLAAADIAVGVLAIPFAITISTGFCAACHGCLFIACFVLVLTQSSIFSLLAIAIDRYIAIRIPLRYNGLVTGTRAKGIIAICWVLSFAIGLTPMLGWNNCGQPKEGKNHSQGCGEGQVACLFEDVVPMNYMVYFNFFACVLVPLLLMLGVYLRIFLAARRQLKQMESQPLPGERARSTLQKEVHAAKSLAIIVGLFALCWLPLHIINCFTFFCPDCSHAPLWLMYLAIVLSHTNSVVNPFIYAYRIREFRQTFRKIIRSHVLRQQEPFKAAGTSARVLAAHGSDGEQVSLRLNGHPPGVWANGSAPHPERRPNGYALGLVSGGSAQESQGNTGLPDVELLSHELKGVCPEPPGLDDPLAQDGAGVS

Take `N#Cc1cccc(-c2nc3c4cnn(CCc5ccc(C(=O)Nc6ccccc6N)cc5)c4nc(N)n3n2)c1`: the GI50 with MC-38 was determined as 5400 nM; in the data set on CT26, 6900 nM. The Tmax in data set [1] is 0.25 h. The k el at 24 h in data set [2] was 5.67e-05 s⁻¹. Also, the Cmax in data set [3] was 598 ng/mL. The same molecule registered an AUC(0-inf) in data set [4] of 602 ng·h/mL. Moreover, the IC50 on Histone deacetylase 1 worked out at 113 nM. In data set [5], this molecule returned an AUC(0-t) of 588 ng·h/mL. In addition, in data set [6], the MRT came to 2.44 h. Moreover, the half-life in data set [7] was 4.08 h. Besides, the Ki on Adenosine receptor A2a was 6.5 nM.

As for `Nc1nc2c(cnn2CCCCCCC(=O)NO)c2nc(-c3ccco3)nn12`, the GI50 in the data set with MC-38 and in the data set on CT26 was 1400 nM in each case. The IC50 at Histone deacetylase 1 was found to be 3.8 nM; in data set [8], 6.6 nM. On Adenosine receptor A2a, this molecule gave a Ki of 10.1 nM.

Consider `CN(CCc1ccc(C(=O)NO)cc1)c1nc(N)n2nc(-c3ccco3)nc2n1`, for which the GI50 with MC-38 was 69200 nM; in the data set with CT26, 75100 nM. For the same molecule, the IC50 on Histone deacetylase 1 came out at 159 nM; in [8], 17.4 nM. At Adenosine receptor A2a, this molecule displayed a Ki of 4.4 nM.

For `Nc1nc2c(cnn2CCc2ccc(C(=O)NO)cc2)c2nc(-c3ccco3)nn12`, the GI50 in the data set with MC-38 and in the data set on CT26 was 100000 nM in each case. Further, the IC50 at Histone deacetylase 1 stood at 138 nM; in data set [8], 7.6 nM. On Adenosine receptor A2a, the affinity corresponds to a Ki of 4.3 nM.

On to `Nc1nc2c(cnn2CCc2ccccc2)c2nc(-c3ccco3)nn12` [SCH-58261], for which the GI50 in the data set on MC-38 and with CT26 was over 100000 nM throughout. Also, at Adenosine receptor A3, the Ki is over 10000 nM.

`Nc1ccccc1NC(=O)c1ccc(CCNc2nc(N)n3nc(-c4ccco4)nc3n2)cc1`: the GI50 came to 48200 nM in the data set on MC-38 and 59100 nM in the data set on CT26. Also, the 50% inhibitory concentration (IC50) is 137 nM at Histone deacetylase 1 and over 10000 nM in data set [8]. The molecule further showed a Ki on Adenosine receptor A2a of 3.9 nM.

With `Nc1nc(NCCCCCCC(=O)NO)nc2nc(-c3ccco3)nn12`, the GI50 in the data set with MC-38 was determined as 35700 nM; in the data set with CT26, 31600 nM. Moreover, the IC50 on Histone deacetylase 1 was 7.7 nM; in data set [8], 10.6 nM. Further, the Ki at Adenosine receptor A2a came to 21.2 nM.

(Values after ChEMBL document CHEMBL5030563, “Structure-Based Design of Dual-Acting Compounds Targeting Adenosine A2A Receptor and Histone Deacetylase as Novel Tumor Immunotherapeutic Agents” (J Med Chem, 2021).)
